Measured values taken from paper PMC12040969, “Design, synthesis, in silico studies, and apoptotic antiproliferative activity of novel thiazole-2-acetamide derivatives as tubulin polymerization inhibitors” (Frontiers in Chemistry, 2025).

Assays:
[1] = Cell viability assay (MTT), normal cells; format: cell-based; details: human, MCF-10A normal mammary gland epithelial cells, four-day incubation
Procedure: The impact of novel compounds 10a-o and 13a-e on cell viability was examined using the MCF-10A (human mammary gland epithelial) normal cell line. The MTT test was employed to assess the cell viability of the novel compounds after a four-day incubation with MCF-10A cells ([El-Sherief et al., 2019]; [Ramadan et al., 2020]).
The effects of compounds 10a-o and 13a-e on cell viability were assessed using the human mammary gland epithelial normal cell line (MCF-10A). The MTT assay assessed the cell viability of compounds 10a-o and 13a-e following a four-day incubation with MCF-10A cells ([El-Sherief et al., 2019]; [Ramadan et al., 2020]). Check Supplementary Appendix A for additional information.
4.2. Biological evaluation
4.2.1 Cell Viability assay (MTT assay)
MTT assay was performed to investigate the effect of the synthesized compounds on mammary epithelial cells (MCF-10A). The cells were propagated in medium consisting of Ham's F-12 medium/ Dulbecco's modified Eagle's medium (DMEM) (1:1) supplemented with 10% foetal calf serum, 2 mM glutamine, insulin (10 μg/mL), hydrocortisone (500 ng/mL) and epidermal growth factor (20 ng/mL). Trypsin ethylenediamine tetra acetic acid (EDTA) was used to passage the cells after every 2-3 days. 96-well flat-bottomed cell culture plates were used to seed the cells at a density of 10^4 cells mL-1. The medium was aspirated from all the wells of culture plates after 24 h followed by the addition of synthesized compounds (in 200 μL medium to yield a final concentration of 0.1% (v/v) dimethyl sulfoxide) into individual wells of the plates.
Four wells were designated to a single compound. The plates were allowed to incubate at 37°C for 96 h. Afterwards, the medium was aspirated and 3-[4,5-dimethylthiazol-2-yl]-2,5-diphenyltetrazolium bromide (MTT) (0.4 mg/mL) in medium was added to each well and subsequently incubated for 3 h. The medium was aspirated and 150 μL dimethyl sulfoxide (DMSO) was added to each well. The plates were vortexed followed by the measurement of absorbance at 540 nm on a microplate reader. The results were presented as inhibition (%) of proliferation in contrast to controls comprising 0.1%

- MDAMB-231 = experiment: Antiproliferative assay (MTT) MDAMB-231
pancreatic - MDAMB-231 = experiment: Antiproliferative assay (MTT) MDAMB-231; details: read-out: Antiproliferative activity IC50 ± SEM (µM) MDAMB-231; MDAMB-231, MTT
[2] = test system: four human cancer cell lines (HCT-116, PC-3, MCF-7, MDAMB-231); experiment: Antiproliferative assay, mean of four cell lines (GI50); details: for Reduced potency compared to doxorubicin (GI50) / Reduced potency compared to sorafenib (GI50): GI50 ratio; for IC50: Homo sapiens, read-out: GI50 (average IC50)
colon - HCT-116 = experiment: Antiproliferative assay (MTT) HCT-116; details: for IC50: read-out: Antiproliferative activity IC50 ± SEM (µM) HCT-116, HCT-116, MTT
breast - MCF-7 = experiment: Antiproliferative assay (MTT) MCF-7; details: for IC50: read-out: Antiproliferative activity IC50 ± SEM (µM) MCF-7, MCF-7, MTT
prostatic - PC-3 = experiment: Antiproliferative assay (MTT) PC-3; details: for IC50: read-out: Antiproliferative activity IC50 ± SEM (µM) PC-3, PC-3, MTT
tubulin = experiment: Tubulin polymerization inhibition assay (Cytoskeleton kit);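 for all read-outs here: Cell-free tubulin polymerization read by fluorescent reporter enhancement over a 30 min reaction, with the compound-free kit control taken as 100% activity and inhibition relative to it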; details: for Tub %inh / Tub. enzyme inhibition assay %inhibition: 30 min; for Tub %inh: YB-EGY run; for Tub K.Activity: EC = 120, YB-EGY run; for IC50: read-out: Tubulin inhibition IC50 ± SEM, triplicate for each tested concentration; for Tub. enzyme inhibition assay %inhibition: codes 522-537 run; for Tub. enzyme inhibition assay K. Activity: control = 120, codes 522-537 run

Cc1ccc(/C=C/C(=O)c2sc(SCC(=O)Nc3nc(-c4ccccc4)cs3)nc2C)cc1 [Compound 10d, (E)-2-((4-methyl-5-(3-(p-tolyl)acryloyl)thiazol-2-yl)thio)-N-(4-phenylthiazol-2-yl)acetamide]
viability at 96 h, 50 µM [1]: 90% | Average of Relative viability of cells (%) (- MDAMB-231; MDAMB-231, 1.56 µM): 89.2% | Average of Relative viability of cells (%) (- MDAMB-231; MDAMB-231, 3.125 µM): 69.3% | Average of Relative viability of cells (%) (- MDAMB-231; MDAMB-231, 6.25 µM): 60.4% | Average of Relative viability of cells (%) (- MDAMB-231; MDAMB-231, 12.5 µM): 31.6% | Average of Relative viability of cells (%) (- MDAMB-231; MDAMB-231, 25 µM): 25.8% | Average of Relative viability of cells (%) (- MDAMB-231; MDAMB-231, 50 µM): 16.9% | Average of Relative viability of cells (%) (- MDAMB-231; MDAMB-231, 100 µM): 13.9% | IC50 (pancreatic - MDAMB-231): 8 ± 0.7 µM | Reduced potency compared to doxorubicin (GI50) [2]: at least 2.5 fold | Reduced potency compared to sorafenib (GI50) [2]: ≥ 1.5 fold | IC50 [2]: 13 µM | Average of Relative viability of cells (%) (colon - HCT-116; HCT-116, 1.56 µM): 100% | Average of Relative viability of cells (%) (colon - HCT-116; HCT-116, 3.125 µM): 91.5% | Average of Relative viability of cells (%) (colon - HCT-116; HCT-116, 6.25 µM): 73.6% | Average of Relative viability of cells (%) (colon - HCT-116; HCT-116, 12.5 µM): 50.2% | Average of Relative viability of cells (%) (colon - HCT-116; HCT-116, 25 µM): 41.9% | Average of Relative viability of cells (%) (colon - HCT-116; HCT-116, 50 µM): 29.7% | Average of Relative viability of cells (%) (colon - HCT-116; HCT-116, 100 µM): 22.4% | IC50 (colon - HCT-116): 19 ± 1.5 µM | Average of Relative viability of cells (%) (breast - MCF-7; MCF-7, 1.56 µM): 97.5% | Average of Relative viability of cells (%) (breast - MCF-7; MCF-7, 3.125 µM): 84.1% | Average of Relative viability of cells (%) (breast - MCF-7; MCF-7, 6.25 µM): 57.3% | Average of Relative viability of cells (%) (breast - MCF-7; MCF-7, 12.5 µM): 39.2% | Average of Relative viability of cells (%) (breast - MCF-7; MCF-7, 25 µM): 22.6% | Average of Relative viability of cells (%) (breast - MCF-7; MCF-7, 50 µM): 20.4% | Average of Relative viability of cells (%) (breast - MCF-7; MCF-7, 100 µM): 8.1% | IC50 (breast - MCF-7): 10 ± 0.8 µM | Average of Relative viability of cells (%) (prostatic - PC-3; PC-3, 1.56 µM): 100% | Average of Relative viability of cells (%) (prostatic - PC-3; PC-3, 3.125 µM): 86.5% | Average of Relative viability of cells (%) (prostatic - PC-3; PC-3, 6.25 µM): 69.6% | Average of Relative viability of cells (%) (prostatic - PC-3; PC-3, 12.5 µM): 52.3% | Average of Relative viability of cells (%) (prostatic - PC-3; PC-3, 25 µM): 36.4% | Average of Relative viability of cells (%) (prostatic - PC-3; PC-3, 50 µM): 27.9% | Average of Relative viability of cells (%) (prostatic - PC-3; PC-3, 100 µM): 18.7% | IC50 (prostatic - PC-3): 16 ± 1.3 µM | Tub %inh (tubulin; conc 0.1 (unit not given)): 17.5% | Tub K.Activity (tubulin; conc 0.1 (unit not given)): 98.945 | Tub %inh (tubulin; conc 1 (unit not given)): 26.6% | Tub K.Activity (tubulin; conc 1 (unit not given)): 88.129 | Tub %inh (tubulin; conc 10 (unit not given)): 45.2% | Tub K.Activity (tubulin; conc 10 (unit not given)): 65.722 | Tub %inh (tubulin; conc 50 (unit not given)): 71.7% | Tub K.Activity (tubulin; conc 50 (unit not given)): 33.903 | Tub %inh (tubulin; conc 100 (unit not given)): 91.1% | Tub K.Activity (tubulin; conc 100 (unit not given)): 10.641 | IC50 (tubulin): 5.26 ± 0.16 µM

Cc1nc(SCC(=O)Nc2nc(-c3ccc(Cl)cc3)cs2)sc1C(=O)/C=C/c1ccccc1 [Compound 10f, (E)-N-(4-(4-chlorophenyl)thiazol-2-yl)-2-((5-cinnamoyl-4-methylthiazol-2-yl)thio) acetamide]
viability at 96 h, 50 µM [1]: 86% | Average of Relative viability of cells (%) (- MDAMB-231; MDAMB-231, 1.56 µM): 96.1% | Average of Relative viability of cells (%) (- MDAMB-231; MDAMB-231, 3.125 µM): 79.5% | Average of Relative viability of cells (%) (- MDAMB-231; MDAMB-231, 6.25 µM): 63.2% | Average of Relative viability of cells (%) (- MDAMB-231; MDAMB-231, 12.5 µM): 38.7% | Average of Relative viability of cells (%) (- MDAMB-231; MDAMB-231, 25 µM): 27.4% | Average of Relative viability of cells (%) (- MDAMB-231; MDAMB-231, 50 µM): 17.8% | Average of Relative viability of cells (%) (- MDAMB-231; MDAMB-231, 100 µM): 14.3% | IC50 (pancreatic - MDAMB-231): 10 ± 0.9 µM | Reduced potency compared to doxorubicin (GI50) [2]: at least 2.5 fold | Reduced potency compared to sorafenib (GI50) [2]: ≥ 1.5 fold | IC50 [2]: 18 µM | Average of Relative viability of cells (%) (colon - HCT-116; HCT-116, 1.56 µM): 100% | Average of Relative viability of cells (%) (colon - HCT-116; HCT-116, 3.125 µM): 90.2% | Average of Relative viability of cells (%) (colon - HCT-116; HCT-116, 6.25 µM): 71.1% | Average of Relative viability of cells (%) (colon - HCT-116; HCT-116, 12.5 µM): 63.4% | Average of Relative viability of cells (%) (colon - HCT-116; HCT-116, 25 µM): 50.5% | Average of Relative viability of cells (%) (colon - HCT-116; HCT-116, 50 µM): 35.7% | Average of Relative viability of cells (%) (colon - HCT-116; HCT-116, 100 µM): 23.6% | IC50 (colon - HCT-116): 25 ± 1.8 µM | Average of Relative viability of cells (%) (breast - MCF-7; MCF-7, 1.56 µM): 100% | Average of Relative viability of cells (%) (breast - MCF-7; MCF-7, 3.125 µM): 84.7% | Average of Relative viability of cells (%) (breast - MCF-7; MCF-7, 6.25 µM): 68.3% | Average of Relative viability of cells (%) (breast - MCF-7; MCF-7, 12.5 µM): 41.9% | Average of Relative viability of cells (%) (breast - MCF-7; MCF-7, 25 µM): 33.5% | Average of Relative viability of cells (%) (breast - MCF-7; MCF-7, 50 µM): 27.4% | Average of Relative viability of cells (%) (breast - MCF-7; MCF-7, 100 µM): 19.2% | IC50 (breast - MCF-7): 14 ± 1.1 µM | Average of Relative viability of cells (%) (prostatic - PC-3; PC-3, 1.56 µM): 100% | Average of Relative viability of cells (%) (prostatic - PC-3; PC-3, 3.125 µM): 91.8% | Average of Relative viability of cells (%) (prostatic - PC-3; PC-3, 6.25 µM): 70.5% | Average of Relative viability of cells (%) (prostatic - PC-3; PC-3, 12.5 µM): 58.2% | Average of Relative viability of cells (%) (prostatic - PC-3; PC-3, 25 µM): 46.7% | Average of Relative viability of cells (%) (prostatic - PC-3; PC-3, 50 µM): 32.3% | Average of Relative viability of cells (%) (prostatic - PC-3; PC-3, 100 µM): 24.2% | IC50 (prostatic - PC-3): 22 ± 1.6 µM | Tub. enzyme inhibition assay %inhibition (tubulin; conc 0.01 (unit not given)): 5.23% | Tub. enzyme inhibition assay K. Activity (tubulin; conc 0.01 (unit not given)): 113.72 | Tub. enzyme inhibition assay %inhibition (tubulin; conc 0.1 (unit not given)): 15.6% | Tub. enzyme inhibition assay K. Activity (tubulin; conc 0.1 (unit not given)): 101.33 | Tub. enzyme inhibition assay %inhibition (tubulin; conc 1 (unit not given)): 34.8% | Tub. enzyme inhibition assay K. Activity (tubulin; conc 1 (unit not given)): 78.182 | Tub. enzyme inhibition assay %inhibition (tubulin; conc 10 (unit not given)): 58.9% | Tub. enzyme inhibition assay K. Activity (tubulin; conc 10 (unit not given)): 49.376 | Tub. enzyme inhibition assay %inhibition (tubulin; conc 100 (unit not given)): 87.6% | Tub. enzyme inhibition assay K. Activity (tubulin; conc 100 (unit not given)): 14.884 | IC50 (tubulin): 5.62 ± 0.17 µM | Tub. (IC50) IC50±SD (tubulin; supplement raw data, lab codes): 2.88 ± 0.09 mg/L
